“And” between values parts separate entries of the source, which are not always exact repeats. Identical values can stand only once. Inconclusive results and toxic doses are left out.
Tested on: BDF1 mice, B16 melanoma ip, median survival T/C
Experiment: NCI In Vivo Anticancer Drug Screen. Data for tumor model B16 Melanoma (intraperitoneal) in B6D2F1 (BDF1) mice
Details: endpoint: median survival time, higher = longer survival
In short: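 Values are ratios of treated (T) to vehicle-control (C) measurements of survival or tumor size in tumor-bearing mice.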

[1] = dose: 6.25 mg/kg/injection, schedule: Q01DX009 (ip), vehicle: saline with Tween-80
[2] = dose: 12.5 mg/kg/injection, schedule: Q01DX009 (ip), vehicle: saline with Tween-80
[3] = dose: 12.5 mg/kg/injection, schedule: Q04DX003 (ip), vehicle: saline with Tween-80
[4] = dose: 25.0 mg/kg/injection, schedule: Q01DX009 (ip), vehicle: saline with Tween-80
[5] = dose: 25.0 mg/kg/injection, schedule: Q01DX009 (ip), vehicle: saline
[6] = dose: 25.0 mg/kg/injection, schedule: Q04DX003 (ip), vehicle: saline with Tween-80
[7] = dose: 50.0 mg/kg/injection, schedule: Q01DX009 (ip), vehicle: saline with Tween-80
[8] = dose: 50.0 mg/kg/injection, schedule: Q01DX009 (ip), vehicle: saline
[9] = dose: 50.0 mg/kg/injection, schedule: Q04DX003 (ip), vehicle: saline with Tween-80
[10] = dose: 25.0 mg/kg/injection, schedule: Q01DX009 (ip), vehicle: Klucel (hydroxypropylcellulose) (HPC)
[11] = dose: 50.0 mg/kg/injection, schedule: Q01DX009 (ip), vehicle: Klucel (hydroxypropylcellulose) (HPC)
[12] = dose: 100.0 mg/kg/injection, schedule: Q01DX009 (ip), vehicle: Klucel (hydroxypropylcellulose) (HPC)
[13] = dose: 200.0 mg/kg/injection, schedule: Q01DX009 (ip), vehicle: Klucel (hydroxypropylcellulose) (HPC)
[14] = dose: 400.0 mg/kg/injection, schedule: Q01DX009 (ip), vehicle: Klucel (hydroxypropylcellulose) (HPC)
[15] = dose: 100.0 mg/kg/injection, schedule: Q01DX009 (ip), vehicle: saline with Tween-80
[16] = dose: 200.0 mg/kg/injection, schedule: Q01DX009 (ip), vehicle: saline with Tween-80
[17] = dose: 100.0 mg/kg/injection, schedule: Q04DX003 (ip), vehicle: Klucel (hydroxypropylcellulose) (HPC)
[18] = dose: 200.0 mg/kg/injection, schedule: Q04DX003 (ip), vehicle: Klucel (hydroxypropylcellulose) (HPC)
[19] = dose: 400.0 mg/kg/injection, schedule: Q04DX003 (ip), vehicle: Klucel (hydroxypropylcellulose) (HPC)
[20] = dose: 400.0 mg/kg/injection, schedule: Q01DX009 (ip), vehicle: saline with Tween-80
[21] = dose: 12.5 mg/kg/injection, schedule: Q01DX009 (ip), vehicle: Klucel (hydroxypropylcellulose) (HPC)

## CO[C@@H](C=O)O[C@@H](C=O)CO
[1]
  T/C: 100 % of control
[2]
  T/C: 108 % of control
[3]
  T/C: 96 % of control
[4]
  T/C: 103 % of control
[5]
  T/C: 107 % of control
[6]
  T/C: 108 % of control
[7]
  T/C: 124 % of control
[8]
  T/C: 100 % of control
[9]
  T/C: 102 % of control
dose: 50.0 mg/kg/injection, schedule: Q04DX003 (ip), vehicle: saline
  T/C: 104 % of control
dose: 100.0 mg/kg/injection, schedule: Q04DX003 (ip), vehicle: saline with Tween-80
  T/C: 100 % of control

## CNC(=O)Nc1ccc(C(=O)NC(C)C)cc1
[10]
  T/C: 98 % of control
[11]
  T/C: 97 % of control
[12]
  T/C: 96 % of control
[13]
  T/C: 100 % of control
[14]
  T/C: 88 % of control

## CC[C@H](C)[C@H](NC(=O)OC(C)(C)C)C(=O)ON1C(=O)CCC1=O
[7]
  T/C: 92 % of control
[15]
  T/C: 97 % of control
[16]
  T/C: 90 % of control

## COc1cc(O)c2c(c1)C(=O)c1cc3c(c(O)c1C2=O)C(OC1OC(C)C(O)C(O)C1OC)C(OC)C(C)(O)C3=O (stereo not given)
[11]
  T/C: 117 % of control
[12]
  T/C: 96 % of control

## CCOC(=O)C1CN(S(=O)(=O)c2ccc(C)cc2)c2ccccc2C(=O)C1/C(=C/C(=O)OC)C(=O)OC (stereo not given)
[17]
  T/C: 92 % of control
[18]
  T/C: 90 % of control
[19]
  T/C: 88 % of control

## CCN(C(=O)Nc1ccc(Cl)cc1)c1ccccc1
[15]
  T/C: 94 % of control
[16]
  T/C: 97 % of control
[20]
  T/C: 92 % of control

## CCN(C)N=Nc1ccc(C(N)=O)cc1
[10]
  T/C: 104 % of control
[11]
  T/C: 112 % of control

## C=CCOCC(O)CN(CC(C)C)CC(C)C (stereo not given)
dose: 6.25 mg/kg/injection, schedule: Q01DX009 (ip), vehicle: Klucel (hydroxypropylcellulose) (HPC)
  T/C: 98 % of control
[21]
  T/C: 104 % of control
[10]
  T/C: 100 % of control

## Cc1ccc(C(=O)NC2C(=O)NC(C(C)C)C(=O)N3CCCC3C(=O)N(C)CC(=O)N(C)C(C(C)C)C(=O)OC2C)c2c1Oc1c(c(C(=O)NC3C(=O)NC(C(C)C)C(=O)N4CCCC4C(=O)N(C)CC(=O)N(C)C(C(C)C)C(=O)OC3C)c3nc(CF)c(=O)oc3c1C)N2 (stereo not given)
dose: 0.13 mg/kg/injection, schedule: Q04DX003 (ip), vehicle: saline + alcohol
  T/C: 154 % of control
dose: 0.25 mg/kg/injection, schedule: Q04DX003 (ip), vehicle: saline + alcohol
  T/C: 164 % of control
dose: 31.25 micrograms/kg/injection, schedule: Q04DX003 (ip), vehicle: water
  T/C: 112 % of control
dose: 125.0 micrograms/kg/injection, schedule: Q04DX003 (ip), vehicle: water
  T/C: 180 % of control
dose: 250.0 micrograms/kg/injection, schedule: Q04DX003 (ip), vehicle: water
  T/C: 170 % of control
dose: 500.0 micrograms/kg/injection, schedule: Q04DX003 (ip), vehicle: water
  T/C: 175 % of control

## NNC(=O)c1ccccc1
dose: 12.5 mg/kg/injection, schedule: Q01DX009 (ip), vehicle: saline
  T/C: 105 % of control
[5]
  T/C: 97 % of control
[8]
  T/C: 88 % of control

## CCO/C([O-])=C/[P+](c1ccccc1)(c1ccccc1)c1ccccc1
[21]
  T/C: 103 % of control
[10]
  T/C: 103 % of control
[11]
  T/C: 100 % of control

## N#Cc1c(F)c(F)c(C#N)c(F)c1F
dose: 1.25 mg/kg/injection, schedule: Q01DX009 (ip), vehicle: saline with Tween-80
  T/C: 90 % of control
dose: 2.5 mg/kg/injection, schedule: Q01DX009 (ip), vehicle: saline with Tween-80
  T/C: 90 % of control

## COc1cc2ccc(Cc3nccc4cc(OC)c(OC)cc34)cc2cc1OC
[12]
  T/C: 93 % of control
[13]
  T/C: 93 % of control

## COc1ccccc1NC(=O)Oc1ccc(-c2ccccc2)cc1Br
[12]
  T/C: 100 % of control
[17]
  T/C: 100 % of control
[13]
  T/C: 96 % of control
[18]
  T/C: 90 % of control
[14]
  T/C: 96 % of control
[19]
  T/C: 96 % of control

## CC1(C)[C@H]2CC[C@@]1(C)C(=O)[C@H]2[N+](=O)[O-]
[12]
  T/C: 114 % of control
[13]
  T/C: 111 % of control
[14]
  T/C: 108 % of control

## Cc1ccc(Cl)cc1NC(=O)Nc1ccc(C)c(NC(=O)Nc2cc(Cl)ccc2C)c1
[15]
  T/C: 90 % of control
[16]
  T/C: 95 % of control
[20]
  T/C: 90 % of control

## CC(C)(CN=Cc1ccccc1[O-])N=Cc1ccccc1[O-].[O]=[V]
[1]
  T/C: 95 % of control
dose: 6.25 mg/kg/injection, schedule: Q04DX003 (ip), vehicle: saline with Tween-80
  T/C: 113 % of control
[2]
  T/C: 95 % of control
[3]
  T/C: 91 % of control
[4]
  T/C: 92 % of control
[6]
  T/C: 104 % of control

## Cc1ccccc1N(CC1CO1)CC1CO1 (stereo not given)
[7]
  T/C: 152 % of control
[15]
  T/C: 180 % of control

## C#CC(C)(C)OCC(CCl)OC(N)=O (stereo not given)
[2]
  T/C: 91 % of control
[4]
  T/C: 100 % of control
[7]
  T/C: 104 % of control
[15]
  T/C: 93 % of control
[16]
  T/C: 95 % of control

## CCOC(=O)NC(CC)CO (stereo not given)
[12]
  T/C: 100 % of control
[17]
  T/C: 90 % of control
[13]
  T/C: 97 % of control
[18]
  T/C: 100 % of control
[14]
  T/C: 102 % of control
[19]
  T/C: 95 % of control

## O=S(=O)(O)C(Nc1ccccc1)c1ccccc1 (stereo not given)
dose: 100.0 mg/kg/injection, schedule: Q01DX009 (ip), vehicle: saline sonified
  T/C: 93 % of control
dose: 200.0 mg/kg/injection, schedule: Q01DX009 (ip), vehicle: saline sonified
  T/C: 93 % of control
dose: 400.0 mg/kg/injection, schedule: Q01DX009 (ip), vehicle: saline sonified
  T/C: 102 % of control

## ClC=P(c1ccccc1)(c1ccccc1)c1ccccc1
[2]
  T/C: 90 % of control
[4]
  T/C: 90 % of control
dose: 33.0 mg/kg/injection, schedule: Q04DX003 (ip), vehicle: saline with Tween-80
  T/C: 91 % of control
[7]
  T/C: 92 % of control and 95 % of control
[9]
  T/C: 152 % of control
dose: 75.0 mg/kg/injection, schedule: Q04DX003 (ip), vehicle: saline with Tween-80
  T/C: 86 % of control

## O=C(CO)c1ccc([N+](=O)[O-])cc1
dose: 3.12 mg/kg/injection, schedule: Q01DX009 (ip), vehicle: saline with Tween-80
  T/C: 97 % of control and 100 % of control
[1]
  T/C: 103 % of control
[2]
  T/C: 99 % of control and 106 % of control
[4]
  T/C: 100 % of control and 104 % of control
[7]
  T/C: 96 % of control and 108 % of control
[15]
  T/C: 93 % of control and 100 % of control

## OCC1OC(n2cnc3c(SCc4ccccc4)ncnc32)C(O)C1O (stereo not given)
dose: 37.5 mg/kg/injection, schedule: Q01DX009 (ip), vehicle: saline with Tween-80
  T/C: 121 % of control

## Cc1ccccc1SSc1ccccc1C
[2]
  T/C: 105 % of control
[4]
  T/C: 104 % of control
[7]
  T/C: 98 % of control
[15]
  T/C: 103 % of control
[16]
  T/C: 98 % of control

Source: PubChem BioAssay AID192 (DTP/NCI, 2004)
